# Test results as given in article PMC8286840, “Identifying SARS-CoV-2 antiviral compounds by screening for small molecule inhibitors of Nsp3 papain-like protease” (Biochemical Journal, 2021).
# Counter-ions that a name gives are not always drawn. Like-named read-outs stand apart in the source and are kept apart here.
# How the values were obtained:
# [1] = biological target: T1, SARS-CoV-2 PLpro (nsp3 1564–1878) (Severe acute respiratory syndrome coronavirus 2, UniProt P0DTD1); test: biochemical; design: FRET-quenched peptide (Pro3) cleavage by PLpro, 10 min pre-incubation, slope over 20 min, normalised to no-compound control; details: read-out: % of control remaining
# [2] = biological target: T1, SARS-CoV-2 PLpro (nsp3 1564–1878); test: biochemical; design: FRET-quenched peptide (Pro3) cleavage by PLpro, 10 min pre-incubation, slope over 20 min, normalised to no-compound control; details: read-out: % of control remaining; remark: listed apart in the source
smiles,measurement,setting,value
COc1cccc(OC)c1-c1ccc(C[C@H](NC(=O)c2c(Cl)cccc2Cl)C(=O)O)cc1 [TR-14035],remaining activity at 3.75 µM,"[1]; Well no.=8514, high concentration screen",93.8%
same,remaining activity at 1.25 µM,"[2]; Well no.=8514, low concentration screen",96.3%
COc1ccc(-c2cnc3c(-c4ccsc4)cnn3c2)cc1 [VEGF Receptor 2 Kinase Inhibitor IV],remaining activity at 3.75 µM,"[1]; Well no.=2655, high concentration screen",97%
same,remaining activity at 1.25 µM,"[2]; Well no.=2655, low concentration screen",95.2%
Cc1cccc(-c2nn(C(=S)Nc3ccccc3)cc2-c2ccnc3ccccc23)n1 [3-(6-methyl-2-pyridinyl)-N-phenyl-4-(4-quinolinyl)-1H-pyrazole-1-carbothioamide],remaining activity at 3.75 µM,[1],100%
same,remaining activity at 1.25 µM,[2],99.2%
COc1cc(C(=O)O[C@H]2C[C@@H]3CC[C@]2(C)C3(C)C)ccc1O [Tschimganine],remaining activity at 3.75 µM,"[1]; Well no.=3209, high concentration screen",104%
same,remaining activity at 1.25 µM,"[2]; Well no.=3209, low concentration screen",104%
O=C1CC[C@@]2(O)[C@H]3Cc4ccc(O)c5c4[C@@]2(CCN3CC2CC2)[C@H]1O5 [Naltrexone.HCl],remaining activity at 3.75 µM,"[1]; Well no.=1883, high concentration screen",92.8%
same,remaining activity at 1.25 µM,"[2]; Well no.=1883, low concentration screen",88.3%
CCOC(=O)[C@]12CC1/C(=N\O)c1ccccc1O2 (mixture of isomers) [CPCCOEt],remaining activity at 3.75 µM,"[1]; Well no.=286, high concentration screen",99.4%
same,remaining activity at 1.25 µM,"[2]; Well no.=286, low concentration screen",95.2%
Nc1ccn([C@@H]2O[C@H](CO)[C@@H](O)C2(F)F)c(=O)n1 [Gemcitabine HCl (Gemzar)],remaining activity at 3.75 µM,"[1]; Well no.=5059, high concentration screen",107%
same,remaining activity at 1.25 µM,"[2]; Well no.=5059, low concentration screen",104%
C[C@H](NC(=O)c1c(C(F)F)nn(C)c1Oc1cccc(C(F)(F)F)c1)c1ccc(C(=O)O)cc1 [E7046],remaining activity at 3.75 µM,"[1]; Well no.=8441, high concentration screen",94.6%
same,remaining activity at 1.25 µM,"[2]; Well no.=8441, low concentration screen",94.7%
CC[C@H](C)C(=O)O[C@H]1C[C@H](O)C=C2C=C[C@H](C)[C@H](CC[C@@H](O)C[C@@H](O)CC(=O)O)[C@H]21 [Pravastatin sodium salt hydrate],remaining activity at 3.75 µM,"[1]; Well no.=5462, high concentration screen",97.8%
same,remaining activity at 1.25 µM,"[2]; Well no.=5462, low concentration screen",96.8%
CN(C)CCOC(C)(c1ccccc1)c1ccccn1 (stereo not drawn) [Doxylamine (succinate)],remaining activity at 3.75 µM,"[1]; Well no.=6421, high concentration screen",102%
same,remaining activity at 1.25 µM,"[2]; Well no.=6421, low concentration screen",99.2%
c1ccc2c(c1)N=C(N1CCNCC1)c1ccccc1N2 [DREADD agonist 21],remaining activity at 3.75 µM,"[1]; Well no.=6943, high concentration screen",100%
same,remaining activity at 1.25 µM,"[2]; Well no.=6943, low concentration screen",96.4%
NC(=NCCC[C@H](N)C(=O)O)NO [NG-Hydroxy-L-arginine acetate],remaining activity at 3.75 µM,"[1]; Well no.=660, high concentration screen",96.5%
same,remaining activity at 1.25 µM,"[2]; Well no.=660, low concentration screen",96.5%
COC(=O)[C@H](CC(C)C)NC(=O)c1ccc(NC[C@@H](N)CS)cc1-c1cccc2ccccc12 [GGTI298 Trifluoroacetate],remaining activity at 3.75 µM,"[1]; Well no.=8456, high concentration screen",86.9%
same,remaining activity at 1.25 µM,"[2]; Well no.=8456, low concentration screen",97.5%
CC(=O)O[C@]1(C(C)=O)CC[C@H]2[C@@H]3C=C(Cl)C4=CC(=O)CC[C@]4(C)[C@H]3CC[C@@]21C [Chlormadinone Acetate],remaining activity at 3.75 µM,"[1]; Well no.=2225, high concentration screen",96.7%
same,remaining activity at 1.25 µM,"[2]; Well no.=2225, low concentration screen",97.4%
CNCc1cc(-c2ccccc2F)n(S(=O)(=O)c2cccnc2)c1 [TAK-438],remaining activity at 3.75 µM,"[1]; Well no.=4794, high concentration screen",93%
same,remaining activity at 1.25 µM,"[2]; Well no.=4794, low concentration screen",91.8%
CC(C)C(O)C(=O)O (stereo not drawn) [2-Hydroxy-3-methylbutanoic acid],remaining activity at 3.75 µM,"[1]; Well no.=7503, high concentration screen",98.9%
same,remaining activity at 1.25 µM,"[2]; Well no.=7503, low concentration screen",101%
CCCCS(=O)(=O)N[C@@H](Cc1ccc(OCCCCC2CCNCC2)cc1)C(=O)O [Tirofiban hydrochloride monohydrate],remaining activity at 3.75 µM,"[1]; Well no.=5469, high concentration screen",99.6%
same,remaining activity at 1.25 µM,"[2]; Well no.=5469, low concentration screen",95.9%
CC(C)NCC(O)COc1ccc(CCOCC2CC2)cc1 (stereo not drawn) [Betaxolol hydrochloride],remaining activity at 3.75 µM,"[1]; Well no.=175, high concentration screen",101%
same,remaining activity at 1.25 µM,"[2]; Well no.=175, low concentration screen",102%
Oc1ccc([C@H]2COc3cc(O)ccc3C2)cc1 [(-)-(S)-Equol],remaining activity at 3.75 µM,"[1]; Well no.=7405, high concentration screen",107%
same,remaining activity at 1.25 µM,"[2]; Well no.=7405, low concentration screen",110%
O=S(=O)(c1cccc2cnccc12)N1CCCNCC1 [HA1077],remaining activity at 3.75 µM,"[1]; Well no.=1669, high concentration screen",106%
same,remaining activity at 1.25 µM,"[2]; Well no.=1669, low concentration screen",106%
C/C=C(/C)C(=O)O[C@H]1C(C)=C2[C@H]([C@@H]1OC(=O)CCCCCCC)[C@@](C)(OC(C)=O)C[C@H](OC(=O)CCC)[C@@]1(O)[C@H]2OC(=O)[C@@]1(C)O [Thapsigargin],remaining activity at 3.75 µM,"[1]; Well no.=1470, high concentration screen",95.1%
same,remaining activity at 3.75 µM,"[1]; Well no.=3184, high concentration screen",107%
same,remaining activity at 1.25 µM,"[2]; Well no.=1470, low concentration screen",98%
same,remaining activity at 1.25 µM,"[2]; Well no.=3184, low concentration screen",107%
CCCCCCCCCCCCCC[C@@H](O)[C@@H](O)[C@@H](N)CO [Phytosphingosine],remaining activity at 3.75 µM,"[1]; Well no.=3082, high concentration screen",103%
same,remaining activity at 1.25 µM,"[2]; Well no.=3082, low concentration screen",102%
O=C(O)/C=C/C(O)c1ccc(Cl)cc1 (stereo not drawn) [NCS-356],remaining activity at 3.75 µM,"[1]; Well no.=807, high concentration screen",101%
same,remaining activity at 1.25 µM,"[2]; Well no.=807, low concentration screen",102%
CC(C)(O)c1ccccc1CC[C@@H](SCC1(CC(=O)O)CC1)c1cccc(/C=C/c2ccc3ccc(Cl)cc3n2)c1 [Montelukast (sodium)],remaining activity at 3.75 µM,"[1]; Well no.=6325, high concentration screen",98%
same,remaining activity at 1.25 µM,"[2]; Well no.=6325, low concentration screen",105%
COc1cc(OC)c2cc(-c3ccncc3)cnc2c1 [DMPQ dihydrochloride],remaining activity at 3.75 µM,"[1]; Well no.=5933, high concentration screen",98.1%
same,remaining activity at 1.25 µM,"[2]; Well no.=5933, low concentration screen",100%
C[C@H](O)C(=O)O [L-Lactic acid],remaining activity at 3.75 µM,"[1]; Well no.=7395, high concentration screen",106%
same,remaining activity at 1.25 µM,"[2]; Well no.=7395, low concentration screen",104%
Cc1cc(NC(=O)Nc2ccc(N(C)C)cc2)c2cc(F)cc(F)c2n1 [SB-408124],remaining activity at 3.75 µM,"[1]; Well no.=4955, high concentration screen",94.9%
same,remaining activity at 3.75 µM,"[1]; Well no.=8481, high concentration screen",102%
same,remaining activity at 1.25 µM,"[2]; Well no.=4955, low concentration screen",90.2%
same,remaining activity at 1.25 µM,"[2]; Well no.=8481, low concentration screen",104%
CCC(=O)NCC[C@@H]1CCc2ccc3c(c21)CCO3 [Ramelteon],remaining activity at 3.75 µM,"[1]; Well no.=8525, high concentration screen",106%
same,remaining activity at 1.25 µM,"[2]; Well no.=8525, low concentration screen",104%
O=C(c1ccc(C(=O)N2CCC(N3CCCC3)CC2)c(Nc2ccccc2)c1)N1CCC(N2CCCC2)CC1 [UNC1215],remaining activity at 3.75 µM,"[1]; Well no.=5417, high concentration screen",100%
same,remaining activity at 1.25 µM,"[2]; Well no.=5417, low concentration screen",98.6%
CCN(Cc1ccccc1)C(=O)Cn1c(=O)n(C)c2cnc(-c3ccccc3)nc21 [XBD173],remaining activity at 3.75 µM,"[1]; Well no.=6053, high concentration screen",100%
same,remaining activity at 1.25 µM,"[2]; Well no.=6053, low concentration screen",102%
N=C(N)c1ccc2nc(-c3cc(CC(=O)N[C@@H](CC(=O)O)C(=O)O)cc(-c4cc(S(N)(=O)=O)ccc4O)c3O)[nH]c2c1 [PCI-27483],remaining activity at 3.75 µM,"[1]; Well no.=8564, high concentration screen",102%
same,remaining activity at 1.25 µM,"[2]; Well no.=8564, low concentration screen",104%
Cc1nnc(C(C)C)n1[C@@H]1C[C@H]2CC[C@@H](C1)N2CC[C@H](NC(=O)C1CCC(F)(F)CC1)c1ccccc1 [Maraviroc],remaining activity at 3.75 µM,"[1]; Well no.=4678, high concentration screen",100%
same,remaining activity at 3.75 µM,"[1]; Well no.=8691, high concentration screen",102%
same,remaining activity at 1.25 µM,"[2]; Well no.=4678, low concentration screen",103%
same,remaining activity at 1.25 µM,"[2]; Well no.=8691, low concentration screen",101%
CCCC(=O)O[C@]1(C(=O)CO)CC[C@H]2[C@@H]3CCC4=CC(=O)CC[C@]4(C)[C@H]3[C@@H](O)C[C@@]21C [Hydrocortisone butyrate],remaining activity at 3.75 µM,"[1]; Well no.=5418, high concentration screen",98.8%
same,remaining activity at 1.25 µM,"[2]; Well no.=5418, low concentration screen",94.8%
